From paper PMC11434980, “Deciphering Chemical Rules for Drug Penetration into Strongyloides” (Pharmaceutics, 2024)
“Also recorded” adds a separate entry of the source. Like-named read-outs stand apart in the source and are kept apart here.

Tests used:
S. venezuelensis L3s [1] = assay: microbe, parasite or virus in culture; conditions: for significant activity against the L3s: L3 motility, 72 h of treatment
Method: (§1) Baerman-obtained S. venezuelensis L3s were rinsed twice with distilled water and counted, and 100 to 150 larvae were placed per well in 96-well flat-bottom culture plates. Larvae were incubated at 28 °C for 30 min to allow adaptation and treated with compounds in the range of 0.5–40 µM for 72 h at 28 °C in a humid atmosphere. Mortality was assessed as the lack of any movement detected during 1 min of observation under an inverted microscope (40×), at 24, 48, and 72 h after treatment. The ability to stain the larvae was pointed out when observed; at 72 h, larvae were collected and washed two times with distilled water and placed in a new well to remove the background color and photographed. Pictures were also taken at 24 and 48 h without cleaning the larvae so as not to interfere with the 72 h readout of the experiment. […] All experiments were conducted in triplicate and at least three different times. The antiparasitic activity of the compounds was expressed as the concentration that inhibited the motility of half of the larvae (immobilization concentration 50, IC50).
A total of 15 dyes were tested against S. venezuelensis L3s at a 20 µM concentration. The activity was determined by the number of larvae lacking motility relative to the total number in the well after 1 min of light excitation at 24, 48, and 72 h after treatment.

[2] = system: HeLa (human cervical cancer) cell line; assay: Cytotoxicity, MTT method; assay type: cell-based; conditions: for antiproliferative activity against HeLa cells at 10 µM / IC50: MTT; for IC50: HeLa cells, 72 h, read-out: HeLa IC50 (antiproliferative activity / cytotoxicity)
Method: (§2) A cytotoxicity test was performed using the HeLa (human cervical cancer) cell line according to the MTT method. Cells were from the ATCC (Manassas, VA, USA). They were cultured at 37 °C in sub-confluent conditions under a 95% humidified atmosphere and 5% CO2 in Dulbecco’s Modified Eagle Medium (DMEM) (Gibco, Whaltman, MA, USA) supplemented with 10% heat-inactivated FBS, 2 mM L-glutamine, 100 U/mL penicillin, and 100 µg/mL streptomycin. […] The antiproliferative activity was measured in triplicate after 72 h using the MTT (3-(4,5-dimethylthiazol-2-yl)-2,5-diphenyltetrazolium bromide) Cell Proliferation Kit (Roche, Boston, MA, USA), following the manufacturer’s specifications. […] The selectivity index (SI = HeLa IC50/L3 IC50) for each compound was calculated to compare the antiparasitic activity with its respective human cell cytotoxicity.

[3] = system: parasitic females of S. venezuelensis; assay: In vitro activity against adult females (movement categories); assay type: cell-based, Strongyloides venezuelensis; conditions: for Activity against Adults @10 µM 72 h: adult females; for effect on adult females / Activity against parasitic females 1 h / Activity against parasitic females 24 h / Activity against parasitic females 48 h / Activity against parasitic females 72 h: 10 µM, 50–70 worms per well
Method: Seven to nine days after infection, the mice or rats were euthanized and the small intestine was removed, sliced longitudinally, minced, and placed in a sedimentation cup wrapped in 8 layers of gauze in phosphate-buffered solution (PBS) for two hours at 37 °C. Parasitic females were collected from the sediment and washed twice with saline solution (NaCl 0.15 mol/L) and twice with Roswell Park Memorial Institute 1640 (RPMI 1640) (Gibco, Whaltman, MA, USA) supplemented with 10% heat-inactivated FBS, 100 µg/mL streptomycin, and 100 U/mL penicillin (Gibco, Whaltman, MA, USA) to avoid contamination during the in vitro assays. After collection, females were placed in 96-well plates with supplemented RPMI medium and kept at 37 °C. We tested three different female population densities to explore the effects on the measured activity: 1–3 females, 10–15 females, and 50–70 females per well. At 24 h after plating, the compounds were applied at 10 µM and the anti-parasitic activity was evaluated at 1, 24, 48, and 72 h after treatment based on movement for 30 s observation periods under the microscope (40×). […] All experiments were conducted in duplicate and at least three different times. […]

Cytotoxicity, MTT method = assay type: cell-based, human; conditions: human; HeLa cells, 72 h, MTT; read-out: HeLa IC50 (antiproliferative activity / cytotoxicity)
Method: as §2

S. venezuelensis L3s [4] = assay: Staining (uptake) of L3 larvae by the dyes; assay type: cell-based, Strongyloides venezuelensis; conditions: for lowest staining concentration (Conc): 72 h
Method: as §1

[5] = system: parasitic females of S. venezuelensis; assay: Staining of adult females by the dyes; assay type: cell-based, Strongyloides venezuelensis; conditions: 10 µM; for Staining (Time): time at which staining of females was seen
[6] = L3S, 72 h, read-out: IC50 72 h (L3)
[7] = read-out: IC50 72 h (immobilization concentration 50 of cultured L3s), L3s, 72 h
[8] = read-out: IC50 24 h (immobilization concentration 50 of cultured L3s), L3s, 24 h
[9] = read-out: IC50 48 h (immobilization concentration 50 of cultured L3s), L3s, 48 h

Compound: Cc1ccc2nc(NC(=O)c3ccc(N4CCN(C)CC4)nc3)sc2c1 [Compound 22, N-(6-methylbenzo[d]thiazol-2-yl)-6-(4-methylpiperazin-1-yl)nicotinamide]
- IC50 (S. venezuelensis L3s [1]; [6]): 8.6 ± 2.3 µM
- mortality at 20 µM (S. venezuelensis L3s [1]; L3S, 72 h, read-out: L3 mortality rate): 100%
- Activity against L3 @20 µM 72 h (S. venezuelensis L3s [1]; L3s, 72 h): Yes
- antiproliferative activity against HeLa cells at 10 µM [2]: no antiproliferative activity
- Activity against Adults @10 µM 72 h [3]: slightly affecting but not killing; also recorded: Slightly affected

Compound: CCCCCCCCCCCCCCCCCCOCC(COP(=O)([O-])OCC[N+](C)(C)C)OC (stereo not drawn) [Edelfosine]
- Screening 20 µM 72 h (S. venezuelensis L3s [1]; L3s, 72 h): No

Compound: COC(=O)Nc1nc2ccc(C(=O)c3ccccc3)cc2[nH]1 [Mebendazole]
- Screening 20 µM 72 h (S. venezuelensis L3s [1]; L3s, 72 h): No
- activity against L3 at 40 µM (S. venezuelensis L3s [1]; L3s): no activity
- IC50 at 72 h (Cytotoxicity, MTT method): 0.2 µM
- selectivity index (SI = HeLa IC50/L3 IC50) [2]: < 0.005
- effect on adult females [3]: slightly reduced movement
- Activity against parasitic females 1 h [3]: Healthy
- Activity against parasitic females 24 h [3]: Healthy
- Activity against parasitic females 48 h [3]: Slightly affected
- Activity against parasitic females 72 h [3]: Slightly affected

Compound: CCCSc1ccc2nc(NC(=O)OC)[nH]c2c1 [Albendazole]
- Screening 20 µM 72 h (S. venezuelensis L3s [1]; L3s, 72 h): No
- activity against L3 at 40 µM (S. venezuelensis L3s [1]; L3s): no activity
- IC50 at 72 h (Cytotoxicity, MTT method): 0.3 µM
- selectivity index (SI = HeLa IC50/L3 IC50) [2]: < 0.0075
- effect on adult females [3]: slightly reduced movement
- Activity against parasitic females 1 h [3]: Healthy
- Activity against parasitic females 24 h [3]: Healthy
- Activity against parasitic females 48 h [3]: Slightly affected
- Activity against parasitic females 72 h [3]: Slightly affected

Compound: CC(=O)Oc1ccc2c(c1)Oc1cc(OC(C)=O)ccc1C21OC(=O)c2ccccc21 [Fluorescein Diacetate]
- Staining 72 h (L3 staining ability) (S. venezuelensis L3s [4]): No
- significant activity against the L3s (S. venezuelensis L3s [1]): did not show significant activity
- Screening 20 µM 72 h (S. venezuelensis L3s [1]; L3s, 72 h): No

Compound: O=C1/C(=C2\Nc3ccc(S(=O)(=O)[O-])cc3C2=O)Nc2ccc(S(=O)(=O)[O-])cc21.[Na+].[Na+] [Indigo Carmine]
- Staining 72 h (L3 staining ability) (S. venezuelensis L3s [4]): No
- significant activity against the L3s (S. venezuelensis L3s [1]): did not show significant activity
- Screening 20 µM 72 h (S. venezuelensis L3s [1]; L3s, 72 h): No
- IC50 (S. venezuelensis L3s [1]; [7]): > 40 µM

Compound: CC[N+](C)(CC)CCC[n+]1c(-c2ccccc2)c2cc(N)ccc2c2ccc(N)cc21.[I-].[I-] [Propidium Iodide]
- Staining 72 h (L3 staining ability) (S. venezuelensis L3s [4]): Yes
- lowest staining concentration (Conc) (S. venezuelensis L3s [4]): 3 µM
- Screening 20 µM 72 h (S. venezuelensis L3s [1]; L3s, 72 h): Active
- IC50 (S. venezuelensis L3s [1]; [8]): 14.5 ± 4.6 µM
- IC50 (S. venezuelensis L3s [1]; [9]): 9.8 ± 3.2 µM
- IC50 (S. venezuelensis L3s [1]; [7]): 4.3 ± 0.6 µM
- Staining of parasitic females [5]: Yes
- staining of adult females [5]: living worms were not strongly stained
- Staining (Time) [5]: 72 h
- effect on adult females [3]: significantly affected
- Activity against parasitic females 1 h [3]: Slightly affected
- Activity against parasitic females 24 h [3]: Slightly affected
- Activity against parasitic females 48 h [3]: Slightly affected
- Activity against parasitic females 72 h [3]: Affected/Some deaths

Compound: Cc1c(C(=O)O)c(O)cc2c1C(=O)c1c(O)c(C3O[C@H](CO)[C@@H](O)[C@H](O)[C@H]3O)c(O)c(O)c1C2=O (stereo in doubt) [Carmine]
- Staining 72 h (L3 staining ability) (S. venezuelensis L3s [4]): No
- significant activity against the L3s (S. venezuelensis L3s [1]): did not show significant activity
- Screening 20 µM 72 h (S. venezuelensis L3s [1]; L3s, 72 h): No

Compound: Oc1cc2c(cc1O)[C@@H]1c3ccc(O)c(O)c3OC[C@]1(O)C2 [Hematoxylin]
- Staining 72 h (L3 staining ability) (S. venezuelensis L3s [4]): No
- significant activity against the L3s (S. venezuelensis L3s [1]): did not show significant activity
- Screening 20 µM 72 h (S. venezuelensis L3s [1]; L3s, 72 h): No

Compound: CN(C)c1ccc(N=Nc2ccc(S(=O)(=O)[O-])cc2)cc1.[Na+] [Methyl Orange]
- Staining 72 h (L3 staining ability) (S. venezuelensis L3s [4]): No
- significant activity against the L3s (S. venezuelensis L3s [1]): did not show significant activity
- Screening 20 µM 72 h (S. venezuelensis L3s [1]; L3s, 72 h): No
- IC50 (S. venezuelensis L3s [1]; [7]): > 40 µM

Compound: Cc1cc(C(=C2C=CC(=N)C=C2)c2ccc(N)cc2)ccc1N [Fuchsine]
- Staining 72 h (L3 staining ability) (S. venezuelensis L3s [4]): Yes
- lowest staining concentration (Conc) (S. venezuelensis L3s [4]): 2 µM
- Screening 20 µM 72 h (S. venezuelensis L3s [1]; L3s, 72 h): Active
- IC50 (S. venezuelensis L3s [1]; [8]): 7.4 ± 1.3 µM
- IC50 (S. venezuelensis L3s [1]; [9]): 6.8 ± 0.9 µM
- IC50 (S. venezuelensis L3s [1]; [7]): 3.2 ± 0.4 µM
- Staining of parasitic females [5]: No
- staining of adult females [5]: did not stain
- IC50 [2]: 1 µM
- Activity against parasitic females 1 h [3]: Healthy
- Activity against parasitic females 24 h [3]: Healthy
- Activity against parasitic females 48 h [3]: Healthy
- Activity against parasitic females 72 h [3]: Healthy

Compound: Cc1ccc2nc(NC(=O)c3cccnc3)sc2c1 [Compound 20, N-(6-methylbenzo[d]thiazol-2-yl)nicotinamide]
- IC50 (S. venezuelensis L3s [1]; [6]): > 20 µM
- Activity against L3 @20 µM 72 h (S. venezuelensis L3s [1]; L3s, 72 h): did not show any activity and no in vitro activity and No
- antiproliferative activity against HeLa cells at 10 µM [2]: no antiproliferative activity
- Activity against Adults @10 µM 72 h [3]: did not show any potency; also recorded: Healthy

Compound: Cc1cc(-c2ccc(/N=N/c3c(S(=O)(=O)O)cc4cc(S(=O)(=O)O)cc(N)c4c3O)c(C)c2)ccc1/N=N/c1c(S(=O)(=O)O)cc2cc(S(=O)(=O)O)cc(N)c2c1O [Trypan Blue]
- Staining 72 h (L3 staining ability) (S. venezuelensis L3s [4]): Yes
- lowest staining concentration (Conc) (S. venezuelensis L3s [4]): 20 µM
- significant activity against the L3s (S. venezuelensis L3s [1]): did not show significant activity
- IC50 at 72 h (Cytotoxicity, MTT method): > 10 µM

Compound: Brilliant Cresyl Blue
- Staining 72 h (L3 staining ability) (S. venezuelensis L3s [4]): Yes
- lowest staining concentration (Conc) (S. venezuelensis L3s [4]): 2.5 µM
- Screening 20 µM 72 h (S. venezuelensis L3s [1]; L3s, 72 h): Active
- IC50 (S. venezuelensis L3s [1]; [8]): 14 ± 4.1 µM
- IC50 (S. venezuelensis L3s [1]; [9]): 9.6 ± 0.6 µM
- IC50 (S. venezuelensis L3s [1]; [7]): 6.8 ± 0.7 µM
- Staining of parasitic females [5]: Yes
- staining of adult females [5]: stained adult females after 24 h in some localized structures
- Staining (Time) [5]: 24 h
- IC50 [2]: > 250 µM
- effect on adult females [3]: significantly affected
- Activity against parasitic females 1 h [3]: Healthy
- Activity against parasitic females 24 h [3]: Slightly affected
- Activity against parasitic females 48 h [3]: Affected
- Activity against parasitic females 72 h [3]: Affected

Compound: O=[N+]([O-])c1ccc2c(N=Nc3ccc4ccccc4c3O)c(O)cc(S(=O)(=O)[O-])c2c1.[Na+] [Eriochrome Black T]
- Staining 72 h (L3 staining ability) (S. venezuelensis L3s [4]): No
- significant activity against the L3s (S. venezuelensis L3s [1]): did not show significant activity
- Screening 20 µM 72 h (S. venezuelensis L3s [1]; L3s, 72 h): No
- IC50 (S. venezuelensis L3s [1]; [7]): > 40 µM

Compound: Oc1ccc2ccccc2c1N=Nc1ccc(N=Nc2ccccc2)cc1 [Sudan III]
- Staining 72 h (L3 staining ability) (S. venezuelensis L3s [4]): No
- significant activity against the L3s (S. venezuelensis L3s [1]): did not show significant activity
- Screening 20 µM 72 h (S. venezuelensis L3s [1]; L3s, 72 h): No
- IC50 (S. venezuelensis L3s [1]; [7]): > 40 µM

Compound: Nc1c(/N=N/c2ccc(-c3ccc(/N=N/c4cc(S(=O)(=O)O)c5ccccc5c4N)cc3)cc2)cc(S(=O)(=O)O)c2ccccc12 [Congo Red]
- Staining 72 h (L3 staining ability) (S. venezuelensis L3s [4]): No
- significant activity against the L3s (S. venezuelensis L3s [1]): did not show significant activity
- Screening 20 µM 72 h (S. venezuelensis L3s [1]; L3s, 72 h): No
